This passage reports MIC and zone of inhibition results from ChEMBL document CHEMBL1909538, “Iodine-catalyzed conjugate addition of indoles onto en-1,4-dione: a novel synthesis of 3-(1-(1H-indol-3-yl)-2-oxo-2-phenylethyl)indolin-2-ones as antibacterial and antifungal agents” (2011).

Each structure is given as a SMILES string. ≈ marks a conversion by molar mass, not a printed value.

One experiment relates to Pseudomonas aeruginosa. The experiment is described as follows: Antimicrobial activity against Pseudomonas aeruginosa MTCC 741 by broth dilution method. Type of experiment: functional. (In general: Dilution methods test growth across graded concentrations, often in twofold steps.)
Experiment [1] deals with Saccharomyces cerevisiae. The experiment is described as follows: Antifungal activity against Saccharomyces cerevisiae MTCC 36 at 100 ug after 48 hrs by agar well diffusion method. Type of experiment: functional. To be noted: MTCC 36, 48 h, read-out: DIZ. For orientation: A growth-free zone around the sample is the usual read-out of agar diffusion tests.
Experiment [2] has as its system Candida albicans. The experiment is described as follows: Antifungal activity against Candida albicans MTCC 227 at 150 ug after 48 hrs by agar well diffusion method. Type of experiment: functional. Conditions: MTCC 227, 48 h, read-out: DIZ.
The test system of experiment [3] is Diutina rugosa. The experiment is described as follows: Antifungal activity against Candida rugosa at 150 ug after 48 hrs by agar well diffusion method. Format: functional. Conditions: read-out: DIZ.
Another experiment relates to Staphylococcus aureus. The experiment is described as follows: Antimicrobial activity against Staphylococcus aureus MTCC 96 by broth dilution method. Format: functional.
The test system of experiment [4] is Aspergillus flavus. The experiment is described as follows: Antifungal activity against Aspergillus flavus at 100 ug after 48 hrs by agar well diffusion method. Conditions: read-out: DIZ.
In experiment [5] the test system is Aspergillus flavus. The experiment is described as follows: Antifungal activity against Aspergillus flavus at 150 ug after 48 hrs by agar well diffusion method. To be noted: read-out: DIZ.
In a further experiment the test system is Klebsiella pneumoniae. The experiment is described as follows: Antimicrobial activity against Klebsiella pneumoniae MTCC 618 by broth dilution method. Type of experiment: functional.
The test system of a further experiment is Bacillus subtilis. The experiment is described as follows: Antimicrobial activity against Bacillus subtilis MTCC 441 by broth dilution method. Type of experiment: functional.
The subject of a further experiment is Escherichia coli. The experiment is described as follows: Antimicrobial activity against Escherichia coli MTCC 443 by broth dilution method. Type of experiment: functional.
In experiment [6] the test system is Candida albicans. The experiment is described as follows: Antifungal activity against Candida albicans MTCC 227 at 100 ug after 48 hrs by agar well diffusion method. Format: functional. Conditions: MTCC 227, 48 h, read-out: DIZ.
For experiment [7], the system named is Saccharomyces cerevisiae. The experiment is described as follows: Antifungal activity against Saccharomyces cerevisiae MTCC 36 at 150 ug after 48 hrs by agar well diffusion method. Format: functional. Conditions: MTCC 36, 48 h, read-out: DIZ.
Experiment [8] deals with Diutina rugosa. The experiment is described as follows: Antifungal activity against Candida rugosa at 100 ug after 48 hrs by agar well diffusion method. Format: functional. Conditions: read-out: DIZ.
Experiment [9] has as its system Staphylococcus epidermidis. The experiment is described as follows: Antimicrobial activity against Staphylococcus epidermidis by broth dilution method. Type of experiment: functional.

In general, MIC refers to the lowest concentration that inhibits growth of the organism. As for `Cc1[nH]c2ccc([N+](=O)[O-])cc2c1C(C(=O)c1ccccc1)C1C(=O)Nc2ccccc21` (configuration not stated), the minimum inhibitory concentration (MIC) (in the experiment on Pseudomonas aeruginosa; with Staphylococcus aureus; against Klebsiella pneumoniae; in the experiment with Bacillus subtilis; in the experiment on Escherichia coli; in experiment [9]) was 150 µg/mL (≈ 353 µM) in each case. For the same compound, the zone of inhibition at 100 µg/disc in the experiment with Saccharomyces cerevisiae [1], with Aspergillus flavus [4], in the experiment with Candida albicans [6] and in the experiment with Diutina rugosa [8] was 0 mm in each case. Moreover, the zone of inhibition at 150 µg/disc in the experiment with Candida albicans [2], in the experiment with Diutina rugosa [3], in the experiment on Aspergillus flavus [5] and with Saccharomyces cerevisiae [7] was 0 mm each time.
In the case of `CC1(C)S[C@@H]2[C@H](NC(=O)Cc3ccccc3)C(=O)N2[C@H]1C(=O)O` [PENICILLIN G], the minimum inhibitory concentration (MIC) with Pseudomonas aeruginosa was 12.5 µg/mL (≈ 37.4 µM); in the experiment on Staphylococcus aureus, 1.56 µg/mL (≈ 4.67 µM); in the experiment on Klebsiella pneumoniae, 6.25 µg/mL (≈ 18.7 µM); with Bacillus subtilis, 1.56 µg/mL (≈ 4.67 µM); in the experiment with Escherichia coli, 12.5 µg/mL (≈ 37.4 µM); in experiment [9], 3.12 µg/mL (≈ 9.35 µM).
`Cn1cc(C(C(=O)c2ccccc2)C2C(=O)Nc3ccccc32)c2ccccc21` (configuration not stated): the minimal inhibitory concentration (MIC) with Pseudomonas aeruginosa came to 18.8 µg/mL (≈ 49.3 µM); with Staphylococcus aureus, 150 µg/mL (≈ 394 µM); in the experiment on Klebsiella pneumoniae it was 150 µg/mL (≈ 394 µM); against Bacillus subtilis, 150 µg/mL (≈ 394 µM); in the experiment with Escherichia coli it was 150 µg/mL (≈ 394 µM); in [9] it was 150 µg/mL (≈ 394 µM). In addition, the zone of inhibition at 100 µg/disc worked out at 0 mm with Saccharomyces cerevisiae [1], 0 mm in the experiment on Aspergillus flavus [4], 0 mm with Candida albicans [6] and 10 mm with Diutina rugosa [8]. Besides, the zone of inhibition at 150 µg/disc in the experiment with Candida albicans [2] came out at 0 mm; in the experiment on Diutina rugosa [3] it was 16 mm; with Aspergillus flavus [5], 0 mm; in the experiment on Saccharomyces cerevisiae [7], 0 mm.
On to `O=C1Nc2ccccc2C1C(C(=O)c1ccccc1)c1c[nH]c2ccc(Cl)cc12` (configuration not stated), for which the MIC stood at 9.38 µg/mL (≈ 23.4 µM) in the experiment on Pseudomonas aeruginosa; 18.8 µg/mL (≈ 46.8 µM) with Staphylococcus aureus; 150 µg/mL (≈ 374 µM) against Klebsiella pneumoniae; 150 µg/mL (≈ 374 µM) against Bacillus subtilis; 150 µg/mL (≈ 374 µM) with Escherichia coli; 75 µg/mL (≈ 187 µM) in experiment [9]. Moreover, the zone of inhibition at 100 µg/disc in the experiment with Saccharomyces cerevisiae [1] was determined as 0 mm; in the experiment on Aspergillus flavus [4], 0 mm; in the experiment with Candida albicans [6], 0 mm; in the experiment on Diutina rugosa [8], 13 mm. Moreover, the zone of inhibition at 150 µg/disc with Candida albicans [2] stood at 0 mm; in the experiment with Diutina rugosa [3], 17 mm; with Aspergillus flavus [5], 0 mm; in the experiment with Saccharomyces cerevisiae [7], 0 mm.
In the case of `O=C1Nc2ccccc2C1C(C(=O)c1ccccc1)c1c(-c2ccccc2)[nH]c2ccccc12` (configuration not stated), the MIC with Pseudomonas aeruginosa amounted to 9.38 µg/mL (≈ 21.2 µM); against Staphylococcus aureus, 75 µg/mL (≈ 169 µM); against Klebsiella pneumoniae, 150 µg/mL (≈ 339 µM); against Bacillus subtilis, 150 µg/mL (≈ 339 µM); in the experiment with Escherichia coli it was 150 µg/mL (≈ 339 µM); in experiment [9], 75 µg/mL (≈ 169 µM). The zone of inhibition at 100 µg/disc in the experiment on Saccharomyces cerevisiae [1] came out at 0 mm; with Aspergillus flavus [4] it was 0 mm; in the experiment on Candida albicans [6], 0 mm; in the experiment with Diutina rugosa [8], 12 mm. The zone of inhibition at 150 µg/disc in the experiment with Candida albicans [2] amounted to 0 mm; with Diutina rugosa [3], 17 mm; with Aspergillus flavus [5] it was 0 mm; in the experiment with Saccharomyces cerevisiae [7] it was 0 mm.
For the compound `CN[C@@H]1[C@H](O[C@H]2[C@H](O[C@H]3[C@H](O)[C@@H](O)[C@H](N=C(N)N)[C@@H](O)[C@@H]3N=C(N)N)O[C@@H](C)[C@]2(O)C=O)O[C@@H](CO)[C@H](O)[C@H]1O` [STREPTOMYCIN], the MIC in the experiment on Pseudomonas aeruginosa was determined as 1.56 µg/mL (≈ 2.69 µM); with Staphylococcus aureus it was 6.25 µg/mL (≈ 10.7 µM); against Klebsiella pneumoniae, 3.12 µg/mL (≈ 5.37 µM); with Bacillus subtilis, 6.25 µg/mL (≈ 10.7 µM); with Escherichia coli, 6.25 µg/mL (≈ 10.7 µM); in [9], 3.12 µg/mL (≈ 5.37 µM).
For `COC(=O)c1ccc2[nH]cc(C(C(=O)c3ccccc3)C3C(=O)Nc4ccccc43)c2c1` (configuration not stated), the MIC in the experiment with Pseudomonas aeruginosa worked out at 18.8 µg/mL (≈ 44.2 µM); against Staphylococcus aureus, 75 µg/mL (≈ 177 µM); in the experiment on Klebsiella pneumoniae it was 150 µg/mL (≈ 353 µM); in the experiment with Bacillus subtilis it was 150 µg/mL (≈ 353 µM); against Escherichia coli, 150 µg/mL (≈ 353 µM); in [9], 150 µg/mL (≈ 353 µM). Further, the zone of inhibition at 100 µg/disc was found to be 0 mm with Saccharomyces cerevisiae [1], 0 mm in the experiment on Aspergillus flavus [4], 0 mm with Candida albicans [6] and 10 mm in the experiment with Diutina rugosa [8]. For the same compound, the zone of inhibition at 150 µg/disc worked out at 0 mm in the experiment on Candida albicans [2], 15 mm in the experiment with Diutina rugosa [3], 0 mm in the experiment with Aspergillus flavus [5] and 0 mm with Saccharomyces cerevisiae [7].
